Reference: patent US12558345B2, “CHK1/2 inhibitors for use in the treatment of neuroblastomas and/or soft tissue sarcomas” (Eli Lilly and Company, priority 2015, dated 2026)
Where a name gives a salt, the structure may show the parent alone.

Assays:
[1] = tested on: Alveoloar Rhabdomyosarcoma xenograft models; test: Sarcoma xenograft models by tumor subtype: Alveolar Rhabdomyosarcoma; format: in vivo, mouse; settings: age of patients 17-24 years
Experimental: (§1) The efficacy of 5-(5-(2-(3-aminopropoxy)-6-methoxyphenyl)-1H-pyrazol-3-ylamino)pyrazine-2-carbonitrile methanesulfonic acid monohydrate is measurable in vivo in mouse models of neuroblastomas and human pediatric and adult sarcomas. 5-(5-(2-(3-Aminopropoxy)-6-methoxyphenyl)-1H-pyrazol-3-ylamino)pyrazine-2-carbonitrile methanesulfonic acid monohydrate (10 mg/kg) can be administered subcutaneously to nude mice bearing either cell-derived xenografts (CDX) or patient-derived xenografts (PDX) of human rhabdomyosarcoma, desmoplastic small round cell tumor (DSRCT), osteosarcoma, and Ewing's sarcoma using a 3 day on, 4 day off b.i.d. dosing schedule. Tumor volume and body weight can be measured two times per week. Tumor-specific parameters can be evaluated by immumohistochemistry.
Expand human RMS cancer cells SJCRH-30 (St. Jude Children's Research Hospital) in culture, harvest, and inject 5×10^6 cells in 200 μL of HBSS subcutaneously into the right rear flank of female athymic nude mice (20-22 g, Harlan Laboratories). […]
For all “ST” models (encompassing RMS and LMS), patient-derived xenografts are established from viable human tumor tissue and are serially passaged in animals a limited number of times to maintain tumor heterogeneity. […] Tumor response is determined by tumor volume measurement performed twice per week during the course of treatment.

[2] = tested on: pediatric sarcoma in vivo mouse models; test: Pediatric tumor / pediatric sarcoma in vivo mouse models (panel)
Experimental: as §1
For all “CTG” models (encompassing human RMS, DSRCT, EWS, OS and LMS patient-derived xenograft models), female NCr nude spontaneous mutant mice (5-8 weeks old, Taconic) are implanted unilaterally in the flank region with tumor fragments harvested from donor animals, each implanted from a specific passage lot.
For all “ST” models (encompassing RMS and LMS), patient-derived xenografts are established from viable human tumor tissue and are serially passaged in animals a limited number of times to maintain tumor heterogeneity. In subcutaneous models, athymic nude mice (Crl:NU(NCr)-Foxn1nu) or CB-17 SCID mice (CRL-CB17/Icr-Prkdcscid/IcrIcoCrl) are injected or implanted unilaterally into the flank with tumor fragments harvested from host animals, each implanted from a specific passage lot. For all studies, measure tumor growth and body weight twice per week beginning on the seventh day after implantation. When tumor size reaches 150-300 mm^3, randomize animals and group into groups of 4-7 animals. […] Tumor response is determined by tumor volume measurement performed twice per week during the course of treatment.

[3] = tested on: HT-29 colon tumor xenograft; test: Human Tumor Xenograft Models, with gemcitabine: HT-29; format: in vivo, mouse
Experimental: The ability of CHK1 inhibitors to effect tumor killing can be determined in vivo using the Calu-6 lung and HT-29 colon tumor xenograft efficacy models. Calu-6 lung cancer cells (ATCC) are cultured in growth media (MEM w/ Earle's salts (Invitrogen) with L-glutamine (Gibco™) supplemented with 10% (v/v) heat inactivated FBS (Gibco™), 1×MEM non-essential amino acids (Gibco™), 1×sodium pyruvate (Gibco™)) and HT-29 colon cancer cells (ATCC) are cultured in growth media, (McCoy's 5A medium (Gibco™) supplemented with 10% FBS (Gibco™)) and expanded. Cells are harvested and washed twice with phosphate buffered saline and 5×10^6 cells (HT-29) or 1×10^6 cells (Calu-6) in growth media (without serum) are mixed with equal volume of BD Matrigel™ matrix (BD Bioscience, Franklin, NJ), then injected subcutaneously into the flank of nude mice (CD-1 nu/nu, from Charles River Labs, Wilmington, MA). At about day 16 after implant (150-200 mm^3), gemcitabine is formulated fresh in saline daily and administered to animals by intraperitoneal route at 60 mg/kg dose. […] Tumor response is determined by tumor volume measurement performed twice a week during the course of treatment. Tumor growth inhibition (TGI) is calculated as the percent reduction in mean tumor size of a compound treated group from the mean tumor size of the vehicle-treated control group.

[4] = tested on: Thirty solid tumor cell lines from 13 tumor histotypes; test: Monolayer Proliferation and Cytotoxicity Assay (Oncotest, modified PI assay); format: cell-based; settings: 96 h, 4 days of treatment, PI fluorescence, read-out: EC50, growth inhibition of the majority of the tumor cell lines
Text: One measure of potency of a CHK1 inhibitor is its ability to inhibit the proliferation of cancer cells in culture due to uncontrolled replication origin activation. (Conti et al. Cell Cycle 6: 2760-2767, 2007) Determination of CHK1 inhibitor antiproliferative activity in cell lines derived from a broad range of tumor types is indicative of which tumor types may be clinically responsive to chemotherapy with CHK1 inhibitors. The following described cellular proliferation assay is run at Oncotest, GmbH in Germany. Thirty solid tumor cell lines are derived from 13 different tumor histotypes, each represented by 1 to 6 different cell lines (Oncotest, GmbH). […] Briefly, adherent cells are harvested from exponential phase cultures by trypsinization, counted and plated in 96 well flat-bottomed microtiter plates at a cell density depending on the cell line (4.000-20.000 cells/well). […] Finally, PI fluorescence is measured using the Cytofluor 4000 microplate reader (excitation k=530 nm, emission k=620 nm) to determine the total viable cell number. Growth inhibition is expressed as Test/Control×100 (% T/C) values. Based on the T/C values, relative IC50 values are determined using non-linear regression (log[conc. of inhibitor] versus response (% T/C)).

[5] = results ranging from stable disease to complete response

| SMILES | Result of Treatment: Complete Response (models) [1] | pediatric tumor models with strong single agent activity ([2]; ranging from stable disease to complete regression, 10 mg/kg SC, 3 day on, 4 day off b.i.d.) | pediatric sarcoma in vivo mouse models in which effective as a single agent (models) [2, 5] | pediatric sarcoma in vivo mouse models in which effective as a single agent (percent) [2, 5] | increase in tumor growth inhibition over gemcitabine alone ([3]; HT-29, combination with gemcitabine) | anti-tumor activity ([3]; HT-29, dosed alone and in combination with gemcitabine 60 mg/kg ip, compound iv +24 hours, Q3Dx4) | EC50 [4] |
| --- | --- | --- | --- | --- | --- | --- | --- |
| COc1cccc(OCCCN)c1-c1cc(Nc2cnc(C#N)cn2)n[nH]1 [Example 5, 5-(5-(2-(3-Aminopropoxy)-6-methoxyphenyl)-1H-pyrazol-3-ylamino)pyrazine-2-carbonitrile methanesulfonic acid monohydrate] | 2/2 Complete | 7/13 | 7/17 | ~41% | – | – | – |
| COc1cccc(OCCCN)c1-c1cc(Nc2cnc(C#N)cn2)n[nH]1 [Example 2, 5-(5-(2-(3-Aminopropoxy)-6-methoxyphenyl)-1H-pyrazol-3-ylamino)pyrazine-2-carbonitrile dihydrogen chloride salt] | – | – | – | – | up to a six-fold increase | excellent dose dependent anti-tumor activity | < 20 nM |
